Experimental data from paper PMC3933301 (Journal of medicinal chemistry, 2013).
In brackets after ≈: the same amount, converted by molar mass. Entries after “also recorded” stand apart in the source; their conditions may differ. Like-named read-outs stand apart in the source and are kept apart here.

Tests used:
[1] = system: Mtb; settings: cited from earlier work
[2] = system: non-replicating Mtb; settings: grown under low oxygen conditions; cited from earlier work
[3] = Cytotoxicity assay; type: cell-based; settings: Cercopithecus aethiops (African green monkey)
[4] = target: T1, Mtb FtsZ (Mycobacterium tuberculosis, UniProt P9WN95); assay: Mtb-FtsZ polymerization inhibitory assay; type: biochemical; settings: FtsZ 15 µM, GTP 50 µM, 25 °C
[5] = system: Mtb H37Rv; assay: Microplate Alamar Blue Assay; type: cell-based, Mycobacterium tuberculosis
[6] = target: T1, Mtb FtsZ; type: biochemical; settings: for TEM: effect on GTP-initiated FtsZ polymerization: FtsZ 5 µM, GTP 25 µM
[7] = system: Mtb H37Rv; settings: early leads of previous study, Figure 1; cited from earlier work
[8] = system: Mtb; settings: standard acute infection model, immune incompetent GKO mice; cited from earlier work

T1 sequence (P9WN95 whole entry): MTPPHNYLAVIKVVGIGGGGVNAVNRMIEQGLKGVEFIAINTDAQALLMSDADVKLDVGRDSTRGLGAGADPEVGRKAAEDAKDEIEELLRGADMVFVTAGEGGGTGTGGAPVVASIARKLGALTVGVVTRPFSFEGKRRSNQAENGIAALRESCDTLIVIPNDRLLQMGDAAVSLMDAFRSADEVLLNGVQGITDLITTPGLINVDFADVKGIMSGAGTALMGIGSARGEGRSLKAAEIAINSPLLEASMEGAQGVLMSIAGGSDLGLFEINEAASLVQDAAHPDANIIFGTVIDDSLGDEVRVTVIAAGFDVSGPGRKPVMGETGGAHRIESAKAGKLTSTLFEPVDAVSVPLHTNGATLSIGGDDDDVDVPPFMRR

CCCCOC(=O)Nc1cc2nc(C3CCCCC3)[nH]c2cc1N1CCCC1 [Compound 2]
Bactericidal activity [1]: bactericidal
Activity against non-replicating Mtb [2]: active

CN(C)c1cc2[nH]c(C3CCCCC3)nc2cc1NC(=O)OCC(F)(F)F [Compound 5p, 2-Cyclohexyl-5-trifluoroethoxycarbonylamino-6-N,N-dimethylamino-1H-benzo[d]imidazole]
IC50 [3]: > 100 µg/mL
Inhibition of Mtb FtsZ polymerization (light scattering) [4]: inhibit the assembly of Mtb FtsZ in a dose dependent manner; also recorded: effective dose-dependent inhibition

CCCCOC(=O)Nc1cc2nc(C3CCCCC3)[nH]c2cc1N(C)C [Compound 5f, 5-Butyloxycarbonylamino-2-cyclohexyl-6-N,N-dimethylamino-1H-benzo[d]imidazole]
Potency relative to 1 (Mtb H37Rv MIC) [5]: 11 times
Inhibition of Mtb FtsZ polymerization (light scattering) [4]: inhibit the assembly of Mtb FtsZ in a dose dependent manner; also recorded: effective dose-dependent inhibition
TEM: effect on preformed FtsZ polymers ([6]; 5f 40 µM or 80 µM added after polymerization with GTP 25 µM): capable of disrupting the formed FtsZ polymers and aggregates; also recorded: effectively disassembled
TEM: effect on GTP-initiated FtsZ polymerization ([6]; 5f 40 µM): reduction in the density and population of FtsZ polymers, protofilaments and aggregates
TEM: effect on GTP-initiated FtsZ polymerization ([6]; 5f 80 µM): more apparent

O=C(Nc1cc2nc(C3CCCCC3)[nH]c2cc1N1CCCC1)OCC(F)(F)F [Compound 5o, 2-Cyclohexyl-5-trifluoroethoxycarbonylamino-6-prrolidinyl-1H-benzo[d]imidazole]
IC50 [3]: > 100 µg/mL

CCc1ccc(C(=O)Nc2cc3nc(C4CCCCC4)[nH]c3cc2N(C)C)cc1 [Compound 7c-6, 2-Cyclohexyl-5-(4-ethylbenzamido)-6-N,N-dimethylamino-1H-benzo[d]imidazole]
Inhibition of Mtb FtsZ polymerization (light scattering) [4]: inhibit the assembly of Mtb FtsZ in a dose dependent manner; also recorded: effective dose-dependent inhibition

CCCCOC(=O)Nc1cc2nc(C3CCCCC3)[nH]c2cc1N(CC)CC [Compound 1]
MIC ([5]; Mycobacterium tuberculosis, H37RV, read-out: Mtb H37Rv MIC): 0.63 µg/mL (≈ 1.63 µM)
MIC of early lead compounds [7]: 0.63 µg/mL
Bactericidal activity [1]: bactericidal
Activity against non-replicating Mtb [2]: active
Efficacy in vivo [8]: good efficacy

CCN(CC)c1cc2[nH]c(C3CCCCC3)nc2cc1NC(=O)OCC(F)(F)F [Compound 5n, 2-Cyclohexyl-6-N,N-diethylamino-5-trifluoroethoxycarbonylamino-1H-benzo[d]imidazole]
IC50 [3]: > 100 µg/mL
